Experimental data: PubChem BioAssay AID1918999 (Molecular Pharmacology Branch, DTP, NCI, 2023)
One block for each molecule: values may come before it.

System: 556581-035-R-J1-PDC complex spheroid growth
Assay: Anticancer human tumor 556581-035-R-J1-PDC patient-derived ovarian carcinoma cell line growth inhibition [AhR]
Conditions: for IC50: curve of first compound; for viability, T/C: stronger effect = lower value
Summary of the method: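 Agents were dosed in half-log steps down from roughly clinical Cmax, or from 10 microM where Cmax was unknown, alone and with AhR antagonists. Read-out: percent test/control growth of tumor spheroids containing HUVEC and MSC stromal cells.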

[1] = second compound 0.1 µM, first compound 0.0316 µM
[2] = second compound 0.1 µM, first compound 0.1 µM
[3] = second compound 0.1 µM, first compound 0.316 µM
[4] = second compound 0.1 µM, first compound 1 µM
[5] = second compound 0.1 µM, first compound 3.16 µM
[6] = second compound 0.1 µM, first compound 10 µM
[7] = second compound 0.316 µM, first compound 0.0316 µM
[8] = second compound 0.316 µM, first compound 0.1 µM
[9] = second compound 0.316 µM, first compound 0.316 µM
[10] = second compound 0.316 µM, first compound 1 µM
[11] = second compound 0.316 µM, first compound 3.16 µM
[12] = second compound 0.316 µM, first compound 10 µM
[13] = second compound 1 µM, first compound 0.0316 µM
[14] = second compound 1 µM, first compound 0.1 µM
[15] = second compound 1 µM, first compound 0.316 µM
[16] = second compound 1 µM, first compound 1 µM
[17] = second compound 1 µM, first compound 3.16 µM
[18] = second compound 1 µM, first compound 10 µM
[19] = second compound 3.16 µM, first compound 0.0316 µM
[20] = second compound 3.16 µM, first compound 0.1 µM
[21] = second compound 3.16 µM, first compound 0.316 µM
[22] = second compound 3.16 µM, first compound 1 µM
[23] = second compound 3.16 µM, first compound 3.16 µM
[24] = second compound 3.16 µM, first compound 10 µM
[25] = second compound 10 µM, first compound 0.0316 µM
[26] = second compound 10 µM, first compound 0.1 µM
[27] = second compound 10 µM, first compound 0.316 µM
[28] = second compound 10 µM, first compound 1 µM
[29] = second compound 10 µM, first compound 3.16 µM
[30] = second compound 10 µM, first compound 10 µM
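For viability, T/C in this document: compound exposure lasted 7 days; 100% = DMSO vehicle control growth.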

- IC50 (second compound 0.1 µM): > 10 µM
- IC50 (second compound 0.316 µM): > 10 µM
- IC50 (second compound 1 µM): > 10 µM
- IC50 (second compound 3.16 µM): > 10 µM
- IC50 (second compound 10 µM): > 10 µM
Structure (SMILES): CC1(C)CCC(CN2CCN(c3ccc(C(=O)NS(=O)(=O)c4ccc(NCC5CCOCC5)c([N+](=O)[O-])c4)c(Oc4cnc5[nH]ccc5c4)c3)CC2)=C(c2ccc(Cl)cc2)C1 + Cc1cncc(-c2nc(NCCc3c[nH]c4ccccc34)c3ncn(C(C)C)c3n2)c1
- viability, T/C [1]: 104%
- viability, T/C [2]: 98.6%
- viability, T/C [3]: 102%
- viability, T/C [4]: 91%
- viability, T/C [5]: 93.1%
- viability, T/C [6]: 77.5%
- viability, T/C [7]: 95.6%
- viability, T/C [8]: 98.2%
- viability, T/C [9]: 102%
- viability, T/C [10]: 95.1%
- viability, T/C [11]: 96.3%
- viability, T/C [12]: 72.3%
- viability, T/C [13]: 105%
- viability, T/C [14]: 99.9%
- viability, T/C [15]: 101%
- viability, T/C [16]: 91.5%
- viability, T/C [17]: 85.6%
- viability, T/C [18]: 76.9%
- viability, T/C [19]: 95.2%
- viability, T/C [20]: 101%
- viability, T/C [21]: 91%
- viability, T/C [22]: 87.8%
- viability, T/C [23]: 80.6%
- viability, T/C [24]: 67.8%
- viability, T/C [25]: 88.9%
- viability, T/C [26]: 80.6%
- viability, T/C [27]: 87.6%
- viability, T/C [28]: 83.7%
- viability, T/C [29]: 81.2%
- viability, T/C [30]: 67.1%

- IC50 (second compound 0.1 µM): > 3 µM
- IC50 (second compound 0.316 µM): > 3 µM
- IC50 (second compound 1 µM): > 3 µM
- IC50 (second compound 3.16 µM): > 3 µM
- IC50 (second compound 10 µM): 2.23 µM
Structure (SMILES): CCN(c1cc(-c2ccc(CN3CCOCC3)cc2)cc(C(=O)NCc2c(C)cc(C)[nH]c2=O)c1C)C1CCOCC1 + Cc1cncc(-c2nc(NCCc3c[nH]c4ccccc34)c3ncn(C(C)C)c3n2)c1
- viability, T/C (second compound 0.1 µM, first compound 0.00949 µM): 97.7%
- viability, T/C (second compound 0.1 µM, first compound 0.03 µM): 109%
- viability, T/C (second compound 0.1 µM, first compound 0.0949 µM): 96.2%
- viability, T/C (second compound 0.1 µM, first compound 0.3 µM): 102%
- viability, T/C (second compound 0.1 µM, first compound 0.949 µM): 102%
- viability, T/C (second compound 0.1 µM, first compound 3 µM): 100%
- viability, T/C (second compound 0.316 µM, first compound 0.00949 µM): 98%
- viability, T/C (second compound 0.316 µM, first compound 0.03 µM): 96.2%
- viability, T/C (second compound 0.316 µM, first compound 0.0949 µM): 102%
- viability, T/C (second compound 0.316 µM, first compound 0.3 µM): 101%
- viability, T/C (second compound 0.316 µM, first compound 0.949 µM): 99.5%
- viability, T/C (second compound 0.316 µM, first compound 3 µM): 104%
- viability, T/C (second compound 1 µM, first compound 0.00949 µM): 104%
- viability, T/C (second compound 1 µM, first compound 0.03 µM): 118%
- viability, T/C (second compound 1 µM, first compound 0.0949 µM): 112%
- viability, T/C (second compound 1 µM, first compound 0.3 µM): 94.9%
- viability, T/C (second compound 1 µM, first compound 0.949 µM): 88.2%
- viability, T/C (second compound 1 µM, first compound 3 µM): 92.3%
- viability, T/C (second compound 3.16 µM, first compound 0.00949 µM): 86.4%
- viability, T/C (second compound 3.16 µM, first compound 0.03 µM): 99.3%
- viability, T/C (second compound 3.16 µM, first compound 0.0949 µM): 101%
- viability, T/C (second compound 3.16 µM, first compound 0.3 µM): 88.6%
- viability, T/C (second compound 3.16 µM, first compound 0.949 µM): 92.1%
- viability, T/C (second compound 3.16 µM, first compound 3 µM): 92.2%
- viability, T/C (second compound 10 µM, first compound 0.00949 µM): 84.4%
- viability, T/C (second compound 10 µM, first compound 0.03 µM): 83.8%
- viability, T/C (second compound 10 µM, first compound 0.0949 µM): 83.3%
- viability, T/C (second compound 10 µM, first compound 0.3 µM): 69.6%
- viability, T/C (second compound 10 µM, first compound 0.949 µM): 66.5%
- viability, T/C (second compound 10 µM, first compound 3 µM): 44.3%

- IC50 (second compound 0.1 µM): > 0.1 µM
- IC50 (second compound 0.316 µM): > 0.1 µM
- IC50 (second compound 1 µM): > 0.1 µM
- IC50 (second compound 3.16 µM): > 0.1 µM
- IC50 (second compound 10 µM): > 0.1 µM
Structure (SMILES): Cn1ncnc1C1c2n[nH]c(=O)c3cc(F)cc(c23)NC1c1ccc(F)cc1 (stereo not given) + Cc1cncc(-c2nc(NCCc3c[nH]c4ccccc34)c3ncn(C(C)C)c3n2)c1
- viability, T/C (second compound 0.1 µM, first compound 0.000316 µM): 105%
- viability, T/C (second compound 0.1 µM, first compound 0.001 µM): 102%
- viability, T/C (second compound 0.1 µM, first compound 0.00316 µM): 95.1%
- viability, T/C (second compound 0.1 µM, first compound 0.01 µM): 110%
- viability, T/C [1]: 92.4%
- viability, T/C [2]: 90.3%
- viability, T/C (second compound 0.316 µM, first compound 0.000316 µM): 99.2%
- viability, T/C (second compound 0.316 µM, first compound 0.001 µM): 99.3%
- viability, T/C (second compound 0.316 µM, first compound 0.00316 µM): 101%
- viability, T/C (second compound 0.316 µM, first compound 0.01 µM): 89.8%
- viability, T/C [7]: 86.9%
- viability, T/C [8]: 86.6%
- viability, T/C (second compound 1 µM, first compound 0.000316 µM): 96.1%
- viability, T/C (second compound 1 µM, first compound 0.001 µM): 104%
- viability, T/C (second compound 1 µM, first compound 0.00316 µM): 102%
- viability, T/C (second compound 1 µM, first compound 0.01 µM): 102%
- viability, T/C [13]: 103%
- viability, T/C [14]: 98.6%
- viability, T/C (second compound 3.16 µM, first compound 0.000316 µM): 90.6%
- viability, T/C (second compound 3.16 µM, first compound 0.001 µM): 107%
- viability, T/C (second compound 3.16 µM, first compound 0.00316 µM): 97.7%
- viability, T/C (second compound 3.16 µM, first compound 0.01 µM): 91.8%
- viability, T/C [19]: 85.2%
- viability, T/C [20]: 101%
- viability, T/C (second compound 10 µM, first compound 0.000316 µM): 87.2%
- viability, T/C (second compound 10 µM, first compound 0.001 µM): 83.4%
- viability, T/C (second compound 10 µM, first compound 0.00316 µM): 92%
- viability, T/C (second compound 10 µM, first compound 0.01 µM): 85.7%
- viability, T/C [25]: 89.9%
- viability, T/C [26]: 79.1%

- IC50 (second compound 0.1 µM): > 10 µM
- IC50 (second compound 0.316 µM): > 10 µM
- IC50 (second compound 1 µM): > 10 µM
- IC50 (second compound 3.16 µM): > 10 µM
- IC50 (second compound 10 µM): 2.67 µM
Structure (SMILES): NS(=O)(=O)OCC1CC(n2ccc3c(NC4CCc5ccccc54)ncnc32)CC1O (stereo not given) + Cc1cncc(-c2nc(NCCc3c[nH]c4ccccc34)c3ncn(C(C)C)c3n2)c1
- viability, T/C [1]: 109%
- viability, T/C [2]: 102%
- viability, T/C [3]: 95.9%
- viability, T/C [4]: 90.5%
- viability, T/C [5]: 81.1%
- viability, T/C [6]: 62.5%
- viability, T/C [7]: 98.1%
- viability, T/C [8]: 104%
- viability, T/C [9]: 92.7%
- viability, T/C [10]: 85.8%
- viability, T/C [11]: 72.7%
- viability, T/C [12]: 62.2%
- viability, T/C [13]: 112%
- viability, T/C [14]: 120%
- viability, T/C [15]: 87.7%
- viability, T/C [16]: 81.6%
- viability, T/C [17]: 74%
- viability, T/C [18]: 63.8%
- viability, T/C [19]: 99.9%
- viability, T/C [20]: 119%
- viability, T/C [21]: 96.4%
- viability, T/C [22]: 84.8%
- viability, T/C [23]: 70.5%
- viability, T/C [24]: 49.5%
- viability, T/C [25]: 87.8%
- viability, T/C [26]: 95.5%
- viability, T/C [27]: 71.9%
- viability, T/C [28]: 71%
- viability, T/C [29]: 45.6%
- viability, T/C [30]: 27.6%
